Experiments:
[1] = target: CYP3A4 (Homo sapiens (Human), UniProt P08684); assay: Time-dependent inhibition of CYP3A4 (TDI assay, human liver microsomes); assay type: in vitro ADME; conditions: for CYP3A4 TDI % @ 10 μM: human liver microsomes, Midazolam substrate, 30 min with NADPH vs 0 min; for time-dependent inhibition on CYP3A4 (conclusion): conclusion drawn from Table 3, 10 μM
Outline: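 Human liver microsomes (final 1 mg/mL) preincubated with test compound for 0 min without NADPH or 30 min with NADPH in 100 mM K-phosphate pH 7.4, 37 °C. Aliquot then diluted into midazolam substrate plus NADPH and incubated 15 min at 37 °C. Quenched with acetonitrile; metabolite read by LC-MS/MS.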

[2] = target: Autotaxin (ATX) (Homo sapiens (Human), UniProt Q13822); assay: ATX bioactivity assay (Amplex Red / choline oxidase / HRP fluorescence, LPC 16:0 substrate); assay type: biochemical; conditions: 30 min room temperature
[3] = test system: LPA18:2 in mouse plasma; assay: Inhibition of LPA in mouse plasma (plasma LPA18:2 assay, LC-MS/MS); assay type: biochemical, CD1 mice; conditions: fresh CD1 mouse plasma, LPA18:2, 37° C. for 120 min
Protocol: Effect Example 2. Inhibition of LPA in Mouse Plasma by Compounds
20 mM stock solutions of the compounds were prepared with DMSO and then diluted to 1 mM, which was subjected to a serial 3-fold dilution to yield 10 working solutions.
Collection of Fresh Mouse Plasma:
CD1 mice were euthanized by CO2 inhalation. Approximately 1 mL of whole blood was taken by cardiac puncture, with EDTA-K2 for anticoagulation. The blood was centrifuged at 3220 g for 10 min at 4° C. for plasma collection.
Reactions were performed in a 96-well plate, and the samples were tested in duplicate. 1 μL of each working solution was added to 100 μL of plasma, with the final concentrations of […]. 1 μL of DMSO was added to plasma to serve as blank. The samples were incubated in a water bath at 37° C. for 120 min, and 600 μL of 10 μM tolbutamide in methanol was added to terminate the reaction. Tolbutamide also served as an internal standard. After 5 min of vortex mixing, the samples were centrifuged at 3220 g for 45 min at 4° C. to precipitate the protein. 100 μL of the supernatant was transferred to a new plate, diluted with water based on LC-MS response and peak shapes, mixed well and analyzed by LC-MS/MS.
LPA18:2 was quantified using peak area ratio (LPA18:2/internal standard), requiring no standard curve. For test compounds of different concentrations, LPA data was represented by a percentage decrease of LPA: 100-[((LPA peak area ratio of compound)/(LPA peak area ratio of control))×100]. IC50 was calculated using Graphpad Prism 6.0 software.

Sequence of CYP3A4 (P08684 whole entry): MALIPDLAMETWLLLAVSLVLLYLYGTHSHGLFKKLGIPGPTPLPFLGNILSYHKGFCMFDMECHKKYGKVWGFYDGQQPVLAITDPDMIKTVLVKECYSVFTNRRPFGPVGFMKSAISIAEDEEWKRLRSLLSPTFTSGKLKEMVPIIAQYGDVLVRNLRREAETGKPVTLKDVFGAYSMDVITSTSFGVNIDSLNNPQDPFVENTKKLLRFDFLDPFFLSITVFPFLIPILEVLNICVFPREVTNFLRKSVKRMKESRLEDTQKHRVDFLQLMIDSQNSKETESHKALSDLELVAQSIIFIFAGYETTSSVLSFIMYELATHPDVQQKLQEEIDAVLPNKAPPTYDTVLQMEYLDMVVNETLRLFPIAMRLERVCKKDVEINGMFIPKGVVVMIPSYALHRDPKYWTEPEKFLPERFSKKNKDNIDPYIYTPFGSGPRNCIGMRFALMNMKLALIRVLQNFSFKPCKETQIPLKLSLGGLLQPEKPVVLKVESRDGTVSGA

SMILES	CYP3A4 TDI % @ 10 μM [1] [%]	time-dependent inhibition on CYP3A4 (conclusion) [1]	IC50 [2] [nM]	IC50 [3] [nM]
CCc1nc2ncc(N3CCN(CC(=O)N4CC(O)C4)CC3)cn2c1N(C)c1nc(-c2ccc(F)cc2)c(C#N)s1 [Compound S-0021, 2-((2-ethyl-6-(4-(2-(3-hydroxyazetidin-1-yl)-2-oxoethyl)piperazin-1-yl)imidazo[1,2-a]pyrimidin-3-yl)(methyl)amino)-4-(4-fluorophenyl)thiazole-5-carbonitrile]	1.67	no time-dependent inhibition on CYP3A4	102	790
CCn1nc2c(F)cc(N3CCN(CC(=O)N4CC(O)C4)CC3)cc2c1N(C)c1nc(-c2ccc(F)cc2)c(C#N)s1 [Compound S-0025, 2-((2-ethyl-7-fluoro-5-(4-(2-(3-hydroxyazetidin-1-yl)-2-oxoethyl)piperazin-1-yl)-2H-indazol-3-yl)(methyl)amino)-4-(4-fluorophenyl)thiazole-5-carbonitrile]	34.21	weak time-dependent inhibition on CYP3A4	88	131
CCc1nn2c(C)cc(N3CCN(CC(=O)N4CC(O)C4)CC3)nc2c1N(C)c1nc(-c2ccc(F)cc2)c(C#N)s1 [Compound S-0035, 2-((2-ethyl-5-(4-(2-(3-hydroxyazetidin-1-yl)-2-oxoethyl)piperazin-1-yl)-7-methylpyrazolo[1,5-a]pyrimidin-3-yl)(methyl)amino)-4-(4-fluorophenyl)thiazole-5-carbonitrile]	−4.84	no time-dependent inhibition on CYP3A4	62	300
CCn1nc2ccc(N3CCN(CC(=O)N4CC(O)C4)CC3)nc2c1N(C)c1nc(-c2ccc(F)cc2)c(C#N)s1 [Compound S-0094, 2-((2-ethyl-5-(4-(2-(3-hydroxyazetidin-1-yl)-2-oxoethyl)piperazin-1-yl)-2H-pyrazolo[4,3-b]pyridin-3-yl)(methyl)amino)-4-(4-fluorophenyl) thiazole-5-carbonitrile]	20.88	no time-dependent inhibition on CYP3A4	23	13
CCn1nc2c(C)cc(N3CCN(CC(=O)N4CC(O)C4)CC3)nc2c1N(C)c1nc(-c2ccc(F)cc2)c(C#N)s1 [Compound S-0095, 2-((2-ethyl-5-(4-(2-(3-hydroxyazetidin-1-yl)-2-oxoethyl)piperazine-1-yl)-7-methyl-2H-pyrazolo[4,3-b]pyridin-3-yl)(methyl)amino)-4-(4-fluorophenyl)thiazole-5-carbonitrile]	2.91	no time-dependent inhibition on CYP3A4	119	309
CCc1oc2ccc(N3CCN(CC(=O)N4CC(O)C4)CC3)nc2c1N(C)c1nc(-c2ccc(F)cc2)c(C#N)s1 [Compound S-0097, 2-((2-ethyl-5-(4-(2-(3-hydroxyazetidin-1-yl)-2-oxoethyl)piperazin-1-yl)furo[3,2-b]pyridin-3-yl)(methyl)amino)-4-(4-fluorophenyl)thiazole-5-carbonitrile]	12.51	no time-dependent inhibition on CYP3A4	160	160
CCc1[nH]c2ccc(N3CCN(CC(=O)N4CC(O)C4)CC3)nc2c1N(C)c1nc(-c2ccc(F)cc2)c(C#N)s1 [Compound S-0098, 2-((2-ethyl-5-(4-(2-(3-hydroxyazetidin-1-yl)-2-oxoethyl)piperazin-1-yl)-1H-pyrrolo[3,2-b]pyridin-3-yl)(methyl)amino)-4-(4-fluorophenyl) thiazole-5-carbonitrile]	37.19	weak time-dependent inhibition on CYP3A4	31	2
CCc1oc2ccc(N3CCN(CC(=O)N4CC(O)C4)CC3)nc2c1N(CC)c1nc(-c2ccc(F)cc2)c(C#N)s1 [Compound S-0105CP, 2-(ethyl(2-ethyl-5-(4-(2-(3-hydroxyazetidin-1-yl)-2-oxoethyl)piperazin-1-yl)furo[3,2-b]pyridin-3-yl)amino)-4-(4-fluorophenyl)thiazole-5-carbonitrile]	0	no time-dependent inhibition on CYP3A4	49	111
CCN(c1nc(-c2ccc(F)cc2)c(C#N)s1)c1c2nc(N3CCN(CC(=O)N4CC(O)C4)CC3)ccc2nn1CC [Compound S-0117, 2-(ethyl(2-ethyl-5-(4-(2-(3-hydroxyazetidin-1-yl)-2-oxoethyl)piperazin-1-yl)-2H-pyrazolo[4,3-b]pyridin-3-yl)amino)-4-(4-fluorophenyl)thiazole-5-carbonitrile]	15.2	no time-dependent inhibition on CYP3A4	12	38
CCN(c1nc(-c2ccc(F)cc2)c(C#N)s1)c1c2cc(N3CCN(CC(=O)N4CC(O)C4)CC3)cc(F)c2nn1CC [Compound S-0122, 2-(ethyl(2-ethyl-7-fluoro-5-(4-(2-(3-hydroxyazetidin-1-yl)-2-oxoethyl)piperazin-1-yl)-2H-indazol-3-yl)amino)-4-(4-fluorophenyl)thiazole-5-carbonitrile]	38.25	weak time-dependent inhibition on CYP3A4	25	61
CCN(c1nc(-c2ccc(F)cc2)c(C#N)s1)c1c2nc(N3CCN(CC(=O)N4CC(O)C4)CC3)cc(C)c2nn1CC [Compound S-0124, 2-(ethyl(2-ethyl-5-(4-(2-(3-hydroxyazetidin-1-yl)-2-oxoethyl)piperazin-1-yl)-7-methyl-2H-pyrazolo[4,3-b]pyridin-3-yl)amino)-4-(4-fluorophenyl) thiazole-5-carbonitrile]	8.74	no time-dependent inhibition on CYP3A4	24	96
CCc1c(N(C)c2nc(-c3ccc(F)cc3)c(C#N)s2)c2nc(N3CCN(CC(=O)N4CC(O)C4)CC3)ccc2n1C [Compound S-0128, 2-((2-ethyl-5-(4-(2-(3-hydroxyazetidin-1-yl)-2-oxoethyl)piperazin-1-yl)-1-methyl-1H-pyrrolo[3,2-b]pyridin-3-yl)(methyl)amino)-4-(4-fluorophenyl)thiazole-5-carbonitrile]	33.64	weak time-dependent inhibition on CYP3A4	142	57
CCc1sc2ccc(N3CCN(CC(=O)N4CC(O)C4)CC3)nc2c1N(C)c1nc(-c2ccc(F)cc2)c(C#N)s1 [Compound S-0129, 2-((2-ethyl-5-(4-(2-(3-hydroxyazetidin-1-yl)-2-oxoethyl)piperazin-1-yl)thieno[3,2-b]pyridin-3-yl)(methyl)amino)-4-(4-fluorophenyl)thiazole-5-carbonitrile]	14.42	no time-dependent inhibition on CYP3A4	264	268

From patent publication US11591342B2, “Heterocyclic compound, application thereof and pharmaceutical composition comprising same” (SUZHOU SINOVENT PHARMACEUTICALS CO., LTD., priority 2018, dated 2023)
